Mean fluorescence intensity and Fluorescence intensity data for 20 compounds are collected here from patent US20260166162A1, “CARBON CHAIN SUBSTANCE FOR REGULATING TRANSMEMBRANE TRANSPORT AND FLUIDITY OF CELL MEMBRANES, AND PREPARATION AND USE THEREOF” (priority 2022, published 2026).

One assay concerns Epithelial cells. As to the kind of experiment: Interaction of GFP-labelled complexes with cell membrane of epithelial cells (Example II-52, Table II-30). It is filed as cell-based. Conditions: GFP-labelled complex, epithelial cells pretreated 4 hours, n=3. The method, then: The fatty acids were combined with water-soluble small molecules to form a complex, which were labeled with GFP fluorescence to detect cell membrane fluorescence. […] After the cells were stably adhered, the water-soluble fatty acid complexes in the following table were added to the cell culture medium. […] The medium with the drug was pipetted and replaced with normal DMEM medium. […] The green fluorescence intensity was analyzed by imageJ (see Table II-30, n=3).

For a further assay, the system named is 293T cells. Kind of assay: Cellular phagocytosis of DiD-loaded lipid vesicles (nano-drugs) by 293T cells (Example II-51, Table II-29). In kind it is cell-based. Conditions: 293T cells pretreated 4 h, DiD lipid vesicles 2 h, n=3, untreated control 226.46 ± 1.26.

Structures are written as SMILES.

As to `CCCCCCCC(=O)NCCCCC(N)C(=O)O` (stereo not drawn) [Lys-n-octanoic acid], the Mean fluorescence intensity is recorded as 103.4 ± 3.1 in the assay on Epithelial cells (0 Hours after medium replaced); 99.3 ± 7.9 in the assay on Epithelial cells (2 Hours after medium replaced); 92.4 ± 7.7 in the assay with Epithelial cells (4 Hours after medium replaced); 45.4 ± 4.7 in the assay with Epithelial cells (8 Hours after medium replaced); 30.4 ± 7.5 in the assay on Epithelial cells (12 Hours after medium replaced); 24.2 ± 8.5 in the assay with Epithelial cells (24 Hours after medium replaced).
Take `CCCC(=O)OC(C)C(N)C(=O)O` (stereo not drawn) [Thr-n-butyric acid]: the Mean fluorescence intensity came to 126.4 ± 4.6 in the assay with Epithelial cells (0 Hours after medium replaced); 121.4 ± 4.6 with Epithelial cells (2 Hours after medium replaced); 115.0 ± 0.4 in the assay on Epithelial cells (4 Hours after medium replaced); 60.41 ± 3.4 in the assay on Epithelial cells (8 Hours after medium replaced); 34.91 ± 5.6 in the assay on Epithelial cells (12 Hours after medium replaced); 30.67 ± 4.5 in the assay with Epithelial cells (24 Hours after medium replaced).
Turning to `NC(COC(=O)CCCCCCCCCCCCCCCCCCCCC(=O)O)C(=O)O` (stereo not drawn) [Ser-docosanedioic acid], the Mean fluorescence intensity in the assay on Epithelial cells (0 Hours after medium replaced) amounted to 114.5 ± 3.3; in the assay on Epithelial cells (2 Hours after medium replaced), 101.4 ± 6.9; in the assay with Epithelial cells (4 Hours after medium replaced), 95.4 ± 5.5; in the assay on Epithelial cells (8 Hours after medium replaced), 74.4 ± 2.4; in the assay on Epithelial cells (12 Hours after medium replaced) it was 34.5 ± 5.5; with Epithelial cells (24 Hours after medium replaced), 20.4 ± 4.4.
For the compound `CCCCCCCCC(=O)OCC(O)C1OC(=O)C(O)=C1O` (stereo not drawn) [Vc-nonanoic acid], the Mean fluorescence intensity was 129.5 ± 6.7 in the assay on Epithelial cells (0 Hours after medium replaced); 115.6 ± 6.8 in the assay on Epithelial cells (2 Hours after medium replaced); 93.7 ± 4.2 with Epithelial cells (4 Hours after medium replaced); 46.3 ± 5.7 in the assay with Epithelial cells (8 Hours after medium replaced); 36.4 ± 5.6 with Epithelial cells (12 Hours after medium replaced); 33.0 ± 7.0 in the assay with Epithelial cells (24 Hours after medium replaced).
Turning to `Nc1ncnc2c1ncn2[C@@H]1O[C@H](COP(=O)(O)O)[C@@H](O)[C@H]1O.O=C(O)/C=C/C(=O)O` [Adenosine monophosphate-fumaric acid], the Mean fluorescence intensity with Epithelial cells (0 Hours after medium replaced) turned out to be 125.1 ± 7.6; with Epithelial cells (2 Hours after medium replaced) it was 120.5 ± 7.4; in the assay with Epithelial cells (4 Hours after medium replaced), 113.3 ± 4.6; with Epithelial cells (8 Hours after medium replaced) it was 50.0 ± 2.4; in the assay on Epithelial cells (12 Hours after medium replaced), 35.8 ± 4.6; in the assay with Epithelial cells (24 Hours after medium replaced), 31.3 ± 4.4.
Take `O=C(O)CCCCCCCCCC(=O)OCC(O)C1OC(=O)C(O)=C1O` (stereo not drawn) [Vc-undecanedioic acid]: the Mean fluorescence intensity is 124.4 ± 4.5 in the assay with Epithelial cells (0 Hours after medium replaced); 116.4 ± 0.7 in the assay with Epithelial cells (2 Hours after medium replaced); 112.1 ± 6.3 in the assay with Epithelial cells (4 Hours after medium replaced); 65.3 ± 3.6 in the assay on Epithelial cells (8 Hours after medium replaced); 41.3 ± 9.3 with Epithelial cells (12 Hours after medium replaced); 35.4 ± 1.6 with Epithelial cells (24 Hours after medium replaced).
For `C=CCCCCCCCCC(=O)NCCCCC(N)C(=O)O` (stereo not drawn) [Lys-10-undecenoic acid], the Mean fluorescence intensity in the assay on Epithelial cells (0 Hours after medium replaced) turned out to be 135.6 ± 2.4; in the assay on Epithelial cells (2 Hours after medium replaced), 130.8 ± 6.7; in the assay with Epithelial cells (4 Hours after medium replaced) it was 118.2 ± 9.0; with Epithelial cells (8 Hours after medium replaced), 89.5 ± 4.4; with Epithelial cells (12 Hours after medium replaced) it was 58.6 ± 5.7; with Epithelial cells (24 Hours after medium replaced), 49.6 ± 0.5.
Consider `CCCCCCCCCCCCC(=O)OC(C)C(N)C(=O)O` (stereo not drawn) [Thr-tridecaneoic acid], for which the Mean fluorescence intensity in the assay with Epithelial cells (0 Hours after medium replaced) is recorded as 106.5 ± 6.4; in the assay with Epithelial cells (2 Hours after medium replaced), 104.3 ± 7.8; in the assay with Epithelial cells (4 Hours after medium replaced) it was 96.6 ± 2.6; with Epithelial cells (8 Hours after medium replaced), 53.5 ± 2.6; with Epithelial cells (12 Hours after medium replaced), 42.5 ± 4.2; in the assay with Epithelial cells (24 Hours after medium replaced) it was 39.0 ± 4.3.
On to `CCCCCC=CCC=CCCCCCCCC(=O)OC(C)C(N)C(=O)O` (stereo not drawn) [Thr-linoleic acid], for which the Mean fluorescence intensity with Epithelial cells (0 Hours after medium replaced) was determined as 127.9 ± 6.6; with Epithelial cells (2 Hours after medium replaced), 122.3 ± 4.7; with Epithelial cells (4 Hours after medium replaced), 102.0 ± 1.5; in the assay on Epithelial cells (8 Hours after medium replaced), 65.2 ± 5.6; in the assay on Epithelial cells (12 Hours after medium replaced), 45.0 ± 2.5; with Epithelial cells (24 Hours after medium replaced), 41.5 ± 7.2.
For `NC(COC(=O)CCCCCCCCCCCCCCC(=O)O)C(=O)O` (stereo not drawn) [Ser-hexadecanedioic acid], the Mean fluorescence intensity in the assay on Epithelial cells (0 Hours after medium replaced) was determined as 119.6 ± 9.4; in the assay on Epithelial cells (2 Hours after medium replaced), 116.2 ± 5.1; in the assay with Epithelial cells (4 Hours after medium replaced), 93.4 ± 5.3; in the assay with Epithelial cells (8 Hours after medium replaced), 63.9 ± 4.1; with Epithelial cells (12 Hours after medium replaced), 46.0 ± 3.6; in the assay on Epithelial cells (24 Hours after medium replaced), 37.6 ± 6.7.
Take `NC(COC(=O)CCCCCCCCCCCCCCCCC(=O)O)C(=O)O` (stereo not drawn) [Ser-octadecanedioic acid]: the Mean fluorescence intensity was 136.2 ± 8.5 in the assay with Epithelial cells (0 Hours after medium replaced); 127.3 ± 1.6 with Epithelial cells (2 Hours after medium replaced); 102.3 ± 4.4 in the assay on Epithelial cells (4 Hours after medium replaced); 76.2 ± 4.6 with Epithelial cells (8 Hours after medium replaced); 53.9 ± 7.2 with Epithelial cells (12 Hours after medium replaced); 42.4 ± 5.5 with Epithelial cells (24 Hours after medium replaced).
`CC=CC(=O)NCCCCC(N)C(=O)O` (stereo not drawn) [Lys-crotonic acid]: the Mean fluorescence intensity with Epithelial cells (0 Hours after medium replaced) is 119.3 ± 3.4; in the assay with Epithelial cells (2 Hours after medium replaced), 120.0 ± 6.6; with Epithelial cells (4 Hours after medium replaced), 98.3 ± 5.5; in the assay with Epithelial cells (8 Hours after medium replaced), 55.9 ± 6.7; in the assay with Epithelial cells (12 Hours after medium replaced), 46.9 ± 3.6; with Epithelial cells (24 Hours after medium replaced) it was 40.4 ± 5.3.
On to `CCCCCCCCC=CCCCCCCCCCCCC(=O)OC(C)C(N)C(=O)O` (stereo not drawn) [Thr-erucic acid], for which the Mean fluorescence intensity in the assay with Epithelial cells (0 Hours after medium replaced) turned out to be 137.4 ± 5.8; in the assay on Epithelial cells (2 Hours after medium replaced), 121.3 ± 5.5; in the assay on Epithelial cells (4 Hours after medium replaced) it was 105.2 ± 7.3; in the assay on Epithelial cells (8 Hours after medium replaced), 79.5 ± 4.8; in the assay on Epithelial cells (12 Hours after medium replaced), 48.3 ± 1.2; with Epithelial cells (24 Hours after medium replaced), 42.4 ± 4.6.
In the case of `CCC=CCC=CCC=CCC=CCC=CCCCC(=O)NCCCCC(N)C(=O)O` (stereo not drawn) [Lys-EPA], the Mean fluorescence intensity in the assay with Epithelial cells (0 Hours after medium replaced) was 123.3 ± 8.8; in the assay on Epithelial cells (2 Hours after medium replaced), 119.2 ± 3.7; in the assay on Epithelial cells (4 Hours after medium replaced), 109.4 ± 1.7; in the assay with Epithelial cells (8 Hours after medium replaced), 66.4 ± 4.7; in the assay on Epithelial cells (12 Hours after medium replaced) it was 39.4 ± 5.8; with Epithelial cells (24 Hours after medium replaced) it was 32.5 ± 4.5.
Regarding `CC/C=C\C/C=C\C/C=C\C/C=C\C/C=C\C/C=C\CCC(=O)OCC(O)C1OC(=O)C(O)=C1O` (stereo not drawn) [Vc-DHA], the Mean fluorescence intensity was determined as 126.3 ± 7.4 in the assay on Epithelial cells (0 Hours after medium replaced); 115.4 ± 5.2 with Epithelial cells (2 Hours after medium replaced); 109.8 ± 4.9 with Epithelial cells (4 Hours after medium replaced); 52.0 ± 6.1 with Epithelial cells (8 Hours after medium replaced); 42.0 ± 3.4 with Epithelial cells (12 Hours after medium replaced); 37.9 ± 4.6 in the assay on Epithelial cells (24 Hours after medium replaced).
In the case of `NC(CCCCNC(=O)CCCCCCCCCCCC(=O)O)C(=O)O` (stereo not drawn) [Lys-tridecanedioic acid], the Mean fluorescence intensity stood at 134.4 ± 5.7 with Epithelial cells (0 Hours after medium replaced); 125.0 ± 6.9 in the assay with Epithelial cells (2 Hours after medium replaced); 113.9 ± 4.2 in the assay on Epithelial cells (4 Hours after medium replaced); 64.3 ± 1.6 in the assay with Epithelial cells (8 Hours after medium replaced); 48.4 ± 6.8 in the assay with Epithelial cells (12 Hours after medium replaced); 42.0 ± 2.6 with Epithelial cells (24 Hours after medium replaced).
In the case of `CCC/C=C/C(=O)OCC(N)C(=O)O` (stereo not drawn) [Ser-t-2-hexenoic acid], the Mean fluorescence intensity in the assay with Epithelial cells (0 Hours after medium replaced) was 104.3 ± 5.2; with Epithelial cells (2 Hours after medium replaced), 101.3 ± 8.6; in the assay with Epithelial cells (4 Hours after medium replaced), 95.4 ± 4.5; in the assay with Epithelial cells (8 Hours after medium replaced), 39.9 ± 8.4; with Epithelial cells (12 Hours after medium replaced) it was 32.5 ± 3.6; with Epithelial cells (24 Hours after medium replaced), 29.8 ± 5.2.
`CCCCCCCCC/C=C/C(=O)OCC1OC(O)C(O)C(O)C1O` (stereo not drawn) [Glucose-t-2-dodecenoic acid]: the Mean fluorescence intensity in the assay with Epithelial cells (0 Hours after medium replaced) came to 129.3 ± 0.6; in the assay with Epithelial cells (2 Hours after medium replaced) it was 122.0 ± 6.6; in the assay with Epithelial cells (4 Hours after medium replaced), 109.6 ± 5.6; in the assay on Epithelial cells (8 Hours after medium replaced), 63.4 ± 6.0; with Epithelial cells (12 Hours after medium replaced), 45.7 ± 4.6; with Epithelial cells (24 Hours after medium replaced), 38.5 ± 8.2.
For the compound `CC(OC(=O)CCCCCCC(=O)O)C(N)C(=O)O` (stereo not drawn) [Thr-octanedioic acid], the Mean fluorescence intensity in the assay on Epithelial cells (0 Hours after medium replaced) was found to be 125.3 ± 4.2; in the assay on Epithelial cells (2 Hours after medium replaced), 122.4 ± 7.5; with Epithelial cells (4 Hours after medium replaced), 115.4 ± 6.8; in the assay on Epithelial cells (8 Hours after medium replaced), 55.4 ± 7.8; with Epithelial cells (12 Hours after medium replaced) it was 45.0 ± 6.3; in the assay with Epithelial cells (24 Hours after medium replaced), 35.3 ± 5.9.
On to `CCCCCCCCCCCC(=O)NCCCCC(N)C(=O)O` (stereo not drawn) [Lys-C12], for which the Fluorescence intensity with 293T cells (2 nM) is on record as 175.30 ± 15.23; in the assay with 293T cells (5 nM), 103.11 ± 10.33; in the assay on 293T cells (10 nM), 49.05 ± 5.26; in the assay with 293T cells (50 nM), 24.16 ± 3.36; in the assay on 293T cells (100 nM) it was 25.45 ± 5.22; with 293T cells (1 uM) it was 367.61 ± 27.11. The values for the Fluorescence intensity in the assay on 293T cells (10 uM), with 293T cells (50 uM) and with 293T cells (100 uM) were 417.28 ± 17.23, 110.76 ± 8.54 and 104.90 ± 6.23, respectively.
